Reference: US9278962B2 (Cytokinetics, Inc., priority 2011, dated 2016)

System: rabbit skeletal myofibrils (approximately 90% fast fibers)
Experiment: Activation of fast skeletal myofibrils (PUMA coupled-enzyme ATPase assay, AC1.4)
Assay type: biochemical
Conditions: concentration at which the compound increased enzymatic activity by 40%, calcium at pCa25
Method: Rabbit skeletal myofibrils were prepared based upon the method of Herrmann et al. (Biochem. 32(28):7255-7263(1993). Myofibrils were prepared from rabbit psoas muscle purchased from Pel-Freez Biologicals (Arkansas) within 2 days of ordering, stored on ice. Minced muscle was homogenized in 10 volumes of ice-cold “standard” buffer (50 mM Tris, pH 7.4, 0.1 M potassium acetate, 5 mM KCl, 2 mM DTT, 0.2 mM PMSF, 10 μM leupeptin, 5 μM pepstatin, and 0.5 mM sodium azide) containing 5 mM EDTA and 0.5% Triton X-100 using an Omni-Macro homogenizer. Myofibrils were recovered by low speed centrifugation (3000 rpm for 10 minutes) and washed 2 times in the Triton X-100 containing buffer to ensure removal of cellular membrane. Following the Triton washes, myofibrils were washed 3 times in “standard” buffer containing 2 mM magnesium acetate. A final wash in assay buffer (12 mM PIPES, pH 6.8, 60 mM KCl, 1 mM DTT) was performed and brought to 10% sucrose for flash freezing in liquid nitrogen and storage at −80° C.
Fast fiber activators were identified by measuring the enzymatic activity of muscle myofibril preparations using the proprietary PUMA™ (see, e.g., U.S. Pat. Nos. 6,410,254, 6,743,599, 7,202,051, and 7,378,254) assay system. Myofibril preparations consisted of rabbit skeletal muscle (approximately 90% fast fibers) that had been mechanically homogenized and washed with a detergent (triton X-100) to remove cellular membranes. This preparation retained all of the sarcomeric components in a native conformation and the enzymatic activity was still regulated by calcium. Compounds were tested using a myofibril suspension and a level of calcium sufficient to increase enzymatic activity of the myofibrils to 25% of their maximal rate (termed pCa25). Enzymatic activity was tracked via a pyruvate kinase and lactate dehydrogenase-coupled enzyme system. This assay regenerates myosin-produced ADP into ATP by oxidizing NADH, producing an absorbance change at 340 nm. The buffering system was 12 mM Pipes, 2 mM MgCl2, 1 mM DTT at pH 6.8 (PM12 buffer).
Using procedures similar to those described herein, utilizing reagents and intermediates commercially available (e.g., Sigma-Aldrich) or readily synthesized by one of skill in the art, the compounds in Table 2, Table 3, Table 4 and Table 5 were synthesized, characterized and tested. AC1.4 values were determined according to the procedure described in Example 6, and the reported median AC1.4 values are as follows: A=<1 uM; B=1-10 uM; C=10-20 uM; D=>20 uM.

Row | Structure (SMILES) | Mean AC1.4 (Table 4) | further results
1 | N#Cc1ccccc1-c1nnc(NCC2(c3ncccc3F)CCC2)s1 [2-(5-((1-(3-fluoropyridin-2-yl)cyclobutyl)methylamino)-1,3,4-thiadiazol-2-yl)benzonitrile] |  | Mean AC1.4 (Table 3): B (B=1-10 uM)
2 | N#Cc1ccc(C#N)c(-c2nnc(NC[C@]3(c4ncccc4F)C[C@H](F)C3)s2)c1 [2-(5-((3-fluoro-1-(3-fluoropyridin-2-yl)cyclobutyl)methylamino)-1,3,4-thiadiazol-2-yl)terephthalonitrile] |  | Mean AC1.4 (Table 3): B (B=1-10 uM)
3 | CC(C)(CNc1nc(-c2ccccc2O)ns1)c1ccc(F)cc1 [2-(5-{[2-(4-fluorophenyl)-2-methylpropyl]amino}-1,2,4-thiadiazol-3-yl)phenol] |  | Mean AC1.4 (Table 2): B (B=1-10 uM)
4 | N#Cc1ccc2nc(NCC3(c4ncccc4F)CCC3)sc2c1 [2-((1-(3-fluoropyridin-2-yl)cyclobutyl)methylamino)benzo[d] thiazole-6-carbonitrile] | B (B=1-10 uM) | 
5 | NC(=O)c1ccc2nc(NCC3(c4ncccc4F)CCC3)sc2c1 [2-((1-(3-fluoropyridin-2-yl)cyclobutyl)methylamino)benzo[d] thiazole-6-carboxamide] | B (B=1-10 uM) | 
6 | COc1cccnc1C1(CNc2nc3ccc(C#N)cc3s2)CCC1 [2-((1-(3-methoxypyridin-2-yl)cyclobutyl)methylamino)benzo[d] thiazole-6-carbonitrile] | D (D=>20 uM) | 
7 | COc1cccnc1C1(CNc2nc3ccc(C(N)=O)cc3s2)CCC1 [2-((1-(3-methoxypyridin-2-yl)cyclobutyl)methylamino)benzo[d] thiazole-6-carboxamide] | B (B=1-10 uM) | 
8 | N#Cc1ccc2nc(NCC3(c4ccc(F)cc4)CCC3)sc2c1 [2-((1-(4-fluorophenyl)cyclobutyl)methylamino) benzo[d]thiazole-6-carbonitrile] | A (A=<1 uM) | 
9 | NC(=O)c1ccc2nc(NCC3(c4ccc(F)cc4)CCC3)sc2c1 [2-((1-(4-fluorophenyl)cyclobutyl)methylamino) benzo[d]thiazole-6-carboxamide] | A (A=<1 uM) | 
10 | COc1ccc(C2(CNc3nc4ccc(C#N)cc4s3)CCC2)nc1 [2-((1-(5-methoxypyridin-2-yl)cyclobutyl)methylamino)benzo[d] thiazole-6-carbonitrile] | D (D=>20 uM) | 
11 | COc1ccc(C2(CNc3nc4ccc(C(N)=O)cc4s3)CCC2)nc1 [2-((1-(5-methoxypyridin-2-yl)cyclobutyl)methylamino)benzo[d] thiazole-6-carboxamide] | C (C=10-20 uM) | 
12 | COc1cccc(C2(CNc3nc4ccc(C#N)cc4s3)CCC2)n1 [2-((1-(6-methoxypyridin-2-yl)cyclobutyl)methylamino)benzo[d] thiazole-6-carbonitrile] | B (B=1-10 uM) | 
13 | COc1cccc(C2(CNc3nc4ccc(C(N)=O)cc4s3)CCC2)n1 [2-((1-(6-methoxypyridin-2-yl)cyclobutyl)methylamino)benzo[d] thiazole-6-carboxamide] | B (B=1-10 uM) | 
14 | N#Cc1ccc2nc(NCC3(c4ccccn4)CCC3)sc2c1 [2-((1-(pyridin-2-yl)cyclobutyl)methylamino)benzo[d] thiazole-6-carbonitrile] | C (C=10-20 uM) | 
15 | NC(=O)c1ccc2nc(NCC3(c4ccccn4)CCC3)sc2c1 [2-((1-(pyridin-2-yl)cyclobutyl)methylamino)benzo[d] thiazole-6-carboxamide] | B (B=1-10 uM) | 
16 | N#Cc1ccc2sc(NC[C@]3(c4ncccc4F)C[C@H](F)C3)nc2c1 [2-((3-fluoro-1-(3-fluoropyridin-2-yl)cyclobutyl)methylamino)benzo[d] thiazole-5-carbonitrile] | C (C=10-20 uM) | 
